In PubChem BioAssay (NCI) one finds TGI data, which are given here for 26 compounds.

The structures appear in SMILES notation.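 Exposure lasted 48 hours, with cells grown in 96-well plates and compounds tested at five concentrations. TGI denotes the concentration required for complete inhibition of growth.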

For the first test, the system named is SNB-19 CNS. Description: NCI-60 cell line screen, 48 h.
As for `C1CSCCSCCCS[C@@H]2CCCCC2SC1` (stereo not given in full), the TGI is over 100 µM.

For the compound `CCOC(=O)c1cn(CC)c(=O)n2c1nc1ccccc12`, the TGI was over 100 µM.

With `NNc1nnc(CCCCCCCCc2nnc(NN)n2N)n1N`, the TGI was over 100 µM.

As for `COc1ccc(-c2oc3cc(-c4cc5oc(-c6ccc(OC)cc6)c(-c6ccc(OC)cc6)c5cc4OC)c(OC)cc3c2-c2ccc(OC)cc2)cc1`, the TGI was over 100 µM.

The compound `O=C(NCCC1CNc2ccccc21)OCc1ccccc1` (stereo not given) registered a TGI of over 100 µM.

For `CCN1/C(=C/C#C/C(C)=C\c2sc3ccc(Cl)cc3[n+]2CC)Sc2ccc(Cl)cc21`, the TGI worked out at 18.9 µM.

As to `CC(=O)c1ccc(N=NN2CCCC2)cc1`, the TGI is over 100 µM.

For `CSc1nncc(-c2cc3c(c(SC)n2)CCCC3)n1`, the TGI was over 100 µM.

`O=C1c2ccccc2N2OC3(N4CCOCC4)CCCC3C12c1ccccc1` (stereo not given) showed a TGI of over 100 µM.

`Cn1c(CNc2ccc(-c3n[nH]c(=S)n3C)cc2)n[nH]c1=S` showed a TGI of over 100 µM.

As for `COc1cc(C2c3cc4c(cc3OC(NN)C2C)OCO4)cc(OC)c1O` (stereo not given), the TGI was over 100 µM.

`COC(=O)[C@@]12OC[C@]34C([C@@H](O)C1O)[C@@]1(C)CC(=O)C(OC(=O)CC(C)C(F)(F)F)=C(C)C1C[C@H]3OC(=O)[C@H](O)[C@H]42` (stereo not given in full): the TGI amounted to 22.4 µM.

In the case of `CC(N)(CC(O)(C(F)(F)Cl)C(F)(F)Cl)C(=O)O` (stereo not given), the TGI was over 10 µM.

`NC1=NC2(COC(c3ccccc3)(c3ccccc3)c3ccccc3)OC(COC(c3ccccc3)(c3ccccc3)c3ccccc3)C(O)C2O1` (stereo not given) came in with a TGI of over 100 µM.

As to `CC1(C)O[C@@H]2[C@@H](COC(C)(C)O[C@H]2C2SCCCS2)O1`, the TGI was over 100 µM.

As to `CCOC(=O)C1(C/C=C\CBr)CCCC1=O` (stereo not given), the TGI is over 100 µM.

Take `COc1ccc(OC)c2sc(N3C(=O)/C(=C/c4cccc(Oc5ccccc5)c4)N=C3c3ccccc3)nc12`: the TGI is over 100 µM.

In the case of `Cc1cc(O)c(/C=N/C(N)=S)c(=O)o1`, the TGI was over 100 µM.

In turn, `Cc1[nH]n(-c2nc3c(c(=O)[nH]2)CCCC3)c(=O)c1CCO` showed a TGI of over 100 µM.

`O=c1c(-c2ccccc2)nnc2n(Cc3ccccc3)c3ccccc3n12` showed a TGI of over 100 µM.

In turn, `Cc1cc2nc3c(C#N)c(-c4ccccc4)/c(=C\Nc4ccc(F)cc4)c(=O)n3c2cc1C` yielded a TGI of 80.9 µM.

`O=C(c1ccccc1)C1(Br)S(=O)(=O)OCCOS1(=O)=O` came in with a TGI of over 100 µM.

`C1CCC(N=C2N(C3CCCCC3)C(=NC3CCCCC3)N2C2CCCCC2)CC1`: the TGI was over 100 µM.

Compound `O=S(=O)(/N=C(\NO)Nc1ccc(Cl)cc1)c1cc(C(F)(F)F)cc(C(F)(F)F)c1` gave a TGI of 31.5 µM.

The test system of another test is T-47D breast. Briefly: NCI-60 cell line screen, 48 h.
Regarding `CCOC(=O)c1cn(CC)c(=O)n2c1nc1ccccc12`, the TGI is over 100 µM.

Turning to `CCN1/C(=C/C#C/C(C)=C\c2sc3ccc(Cl)cc3[n+]2CC)Sc2ccc(Cl)cc21`, the TGI was determined as 17.6 µM.

Compound `c1cc(-c2ccc(-c3ccsc3)s2)cs1` showed a TGI of over 100 µM.

`CC(=O)c1ccc(N=NN2CCCC2)cc1` yielded a TGI of over 100 µM.

In turn, `COc1cc(C2c3cc4c(cc3OC(NN)C2C)OCO4)cc(OC)c1O` (stereo not given) showed a TGI of 31 µM.

Regarding `CC(N)(CC(O)(C(F)(F)Cl)C(F)(F)Cl)C(=O)O` (stereo not given), the TGI is over 10 µM.

`NC1=NC2(COC(c3ccccc3)(c3ccccc3)c3ccccc3)OC(COC(c3ccccc3)(c3ccccc3)c3ccccc3)C(O)C2O1` (stereo not given) displayed a TGI of over 100 µM.

Turning to `CC1(C)O[C@@H]2[C@@H](COC(C)(C)O[C@H]2C2SCCCS2)O1`, the TGI is over 100 µM.

On to `O=C(O)CCCc1ccc2c(c1)CC1(C2)Cc2cc3c(cc2C1)CCCC3`, for which the TGI is over 100 µM.

Consider `CCOC(=O)C1(C/C=C\CBr)CCCC1=O` (stereo not given), for which the TGI came out at 94.3 µM.

The compound `COc1ccc(OC)c2sc(N3C(=O)/C(=C/c4cccc(Oc5ccccc5)c4)N=C3c3ccccc3)nc12` showed a TGI of over 100 µM.

The compound `Cc1[nH]n(-c2nc3c(c(=O)[nH]2)CCCC3)c(=O)c1CCO` showed a TGI of over 100 µM.

In turn, `O=c1c(-c2ccccc2)nnc2n(Cc3ccccc3)c3ccccc3n12` came in with a TGI of over 100 µM.

`Cc1cc2nc3c(C#N)c(-c4ccccc4)/c(=C\Nc4ccc(F)cc4)c(=O)n3c2cc1C`: the TGI is over 100 µM.

The compound `O=S(=O)(/N=C(\NO)Nc1ccc(Cl)cc1)c1cc(C(F)(F)F)cc(C(F)(F)F)c1` yielded a TGI of 67.2 µM.

The subject of a further test is U251 CNS. Briefly: NCI-60 cell line screen, 48 h.
In the case of `C1CSCCSCCCS[C@@H]2CCCCC2SC1` (stereo not given in full), the TGI is over 100 µM.

`CCOC(=O)c1cn(CC)c(=O)n2c1nc1ccccc12` showed a TGI of over 100 µM.

`NNc1nnc(CCCCCCCCc2nnc(NN)n2N)n1N` yielded a TGI of 49 µM.

`COc1ccc(-c2oc3cc(-c4cc5oc(-c6ccc(OC)cc6)c(-c6ccc(OC)cc6)c5cc4OC)c(OC)cc3c2-c2ccc(OC)cc2)cc1` registered a TGI of over 100 µM.

Take `O=C(NCCC1CNc2ccccc21)OCc1ccccc1` (stereo not given): the TGI was over 100 µM.

For `CCN1/C(=C/C#C/C(C)=C\c2sc3ccc(Cl)cc3[n+]2CC)Sc2ccc(Cl)cc21`, the TGI amounted to 23.2 µM.

As to `c1cc(-c2ccc(-c3ccsc3)s2)cs1`, the TGI was 49.7 µM.

`CC(=O)c1ccc(N=NN2CCCC2)cc1` yielded a TGI of over 100 µM.

`CSc1nncc(-c2cc3c(c(SC)n2)CCCC3)n1` displayed a TGI of over 100 µM.

For `O=C1c2ccccc2N2OC3(N4CCOCC4)CCCC3C12c1ccccc1` (stereo not given), the TGI was over 100 µM.

`Cn1c(CNc2ccc(-c3n[nH]c(=S)n3C)cc2)n[nH]c1=S`: the TGI is over 100 µM.

For `COc1cc(C2c3cc4c(cc3OC(NN)C2C)OCO4)cc(OC)c1O` (stereo not given), the TGI was found to be 33.5 µM.

Consider `COC(=O)[C@@]12OC[C@]34C([C@@H](O)C1O)[C@@]1(C)CC(=O)C(OC(=O)CC(C)C(F)(F)F)=C(C)C1C[C@H]3OC(=O)[C@H](O)[C@H]42` (stereo not given in full), for which the TGI is over 62.5 µM.

As for `CC(N)(CC(O)(C(F)(F)Cl)C(F)(F)Cl)C(=O)O` (stereo not given), the TGI is over 10 µM.

`NC1=NC2(COC(c3ccccc3)(c3ccccc3)c3ccccc3)OC(COC(c3ccccc3)(c3ccccc3)c3ccccc3)C(O)C2O1` (stereo not given) returned a TGI of over 100 µM.

Compound `CC1(C)O[C@@H]2[C@@H](COC(C)(C)O[C@H]2C2SCCCS2)O1` gave a TGI of over 100 µM.

For `O=C(O)CCCc1ccc2c(c1)CC1(C2)Cc2cc3c(cc2C1)CCCC3`, the TGI was 32.9 µM.

Compound `CCOC(=O)C1(C/C=C\CBr)CCCC1=O` (stereo not given) gave a TGI of 48.7 µM.

On to `COc1ccc(OC)c2sc(N3C(=O)/C(=C/c4cccc(Oc5ccccc5)c4)N=C3c3ccccc3)nc12`, for which the TGI is over 100 µM.

`Cc1cc(O)c(/C=N/C(N)=S)c(=O)o1` had a TGI of over 100 µM.

As for `Cc1[nH]n(-c2nc3c(c(=O)[nH]2)CCCC3)c(=O)c1CCO`, the TGI is over 100 µM.

`O=c1c(-c2ccccc2)nnc2n(Cc3ccccc3)c3ccccc3n12` showed a TGI of over 100 µM.

`Cc1cc2nc3c(C#N)c(-c4ccccc4)/c(=C\Nc4ccc(F)cc4)c(=O)n3c2cc1C` showed a TGI of over 100 µM.

In the case of `O=C(c1ccccc1)C1(Br)S(=O)(=O)OCCOS1(=O)=O`, the TGI was over 100 µM.

As to `C1CCC(N=C2N(C3CCCCC3)C(=NC3CCCCC3)N2C2CCCCC2)CC1`, the TGI is over 100 µM.

On to `O=S(=O)(/N=C(\NO)Nc1ccc(Cl)cc1)c1cc(C(F)(F)F)cc(C(F)(F)F)c1`, for which the TGI came out at 31.4 µM.
